Measurements: ChEMBL document CHEMBL4177734, “Cytotoxic quinazoline alkaloids from the seeds of Peganum harmala” (Bioorg Med Chem Lett, 2018)

Key:
Assay type in all cases: functional, cell-based; call rule not given here
HL-60 = test: Cytotoxicity against human HL60 cells assessed as reduction in cell viability by trypan blue method
SGC-7901 = test: Cytotoxicity against human SGC7901 cells assessed as reduction in cell viability by MTT assay
PC-3 = test: Cytotoxicity against human PC3 cells assessed as reduction in cell viability by MTT assay
[1] = Cytotoxicity against mouse Sp2/0-Ag14 cells
[2] = Cytotoxicity against Med-merk carcinoma cells (unknown origin)
[3] = Homo sapiens, HL-60, read-out: IC50
[4] = Homo sapiens, PC-3, read-out: IC50

Structure (SMILES)	IC50 (HL-60; hl-60)	IC50 (SGC-7901)	IC50 (PC-3; pc-3)	IC50 (HL-60; [3]) [µM]	IC50 (PC-3; [4]) [µM]	IC50 [1] [µM]	IC50 [2] [µM]
O=c1[nH]c(CCCO)nc2ccccc12	Not Active	Not Active	Not Active				
Nc1ccccc1CN1CC[C@@H](O[C@@H]2O[C@H](CO[C@@H]3O[C@H](CO)[C@@H](O)[C@H](O)[C@H]3O)[C@@H](O)[C@H](O)[C@H]2O)C1=O	Not Active	Not Active	Not Active				
Nc1ccccc1CN1CC[C@H](O)C1=O		Not Active	Not Active	42.3			
O=c1c2cc(O)ccc2nc2n1CC[C@@H]2O	Not Active	Not Active	Not Active				
O=c1[nH]cnc2ccccc12 [QUINAZOLINONE]	Not Active	Not Active	Not Active				
O=c1c2ccccc2nc2n1CC[C@@H]2O[C@@H]1O[C@H](CO)[C@@H](O)[C@H](O)[C@H]1O	Not Active	Not Active	Not Active				
O[C@H]1CCN2Cc3ccccc3N=C12 [VASICINE]	Not Active	Not Active			15.4		
O=c1c2ccccc2nc2n1CC[C@H]2O[C@@H]1O[C@H](CO[C@@H]2O[C@H](CO)[C@@H](O)[C@H](O)[C@H]2O)[C@@H](O)[C@H](O)[C@H]1O	Not Active	Not Active	Not Active				
O=c1c2ccccc2nc2n1CCC2O (racemic)						19.2	25.3
Nc1ccccc1CN1CC[C@H](O[C@@H]2O[C@H](CO[C@@H]3O[C@H](CO)[C@@H](O)[C@H](O)[C@H]3O)[C@@H](O)[C@H](O)[C@H]2O)C1=O		Not Active	Not Active	42.8			
O=c1c2cc(O)ccc2nc2n1CC[C@H]2O	Not Active	Not Active	Not Active				
O=c1c2ccccc2nc2n1CCC2 [DEOXYVASICINONE]	Not Active	Not Active	Not Active				
O=c1c2ccccc2nc2n1CC[C@H]2O		Not Active	Not Active	67.8			
O=c1c2ccccc2nc2n1CC[C@@H]2O[C@@H]1O[C@H](CO[C@@H]2O[C@H](CO)[C@@H](O)[C@H](O)[C@H]2O)[C@@H](O)[C@H](O)[C@H]1O	Not Active	Not Active	Not Active				
O[C@@H]1CCN2Cc3ccccc3N=C12	Not Active	Not Active			15.4		
COC(=O)CCn1cnc2ccccc2c1=O	Not Active	Not Active	Not Active				
O=c1c2ccccc2nc2n1CC[C@@H]2O		Not Active	Not Active	67.8			
Nc1ccccc1CN1CC[C@@H](O)C1=O		Not Active	Not Active	42.3			
